Like-named read-outs stand apart in the source and are kept apart here.
What was measured:
Experiment in all cases: Test C pre/postemergence
Format in all cases: in vivo
[1] = test system: crabgrass (Digitaria sanguinalis); settings: Digitaria sanguinalis, pre-emergence, Preemergence, scale 0 to 100, read-out: Plant response rating, Crabgrass
In short: (§1)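 Visual injury ratings, 0 (no effect) to 100 (complete control), made 12 to 14 days after treatment by comparison with untreated controls. Greenhouse plants received test chemical in a surfactant-containing non-phytotoxic solvent, either preemergence on planted seeds or postemergence at the 1- to 4-leaf stage.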

[2] = test system: common (oilseed) sunflower (Helianthus annuus); settings: Helianthus annuus, pre-emergence, Preemergence, read-out: Plant response rating, Sunflower
In short: as §1

[3] = test system: johnsongrass (Sorghum halepense); settings: Sorghum halepense; for pest or weed control at 62 g/ha: 62 g ai/ha; for pest or weed control at 125 g/ha: 125 g ai/ha; for pest or weed control at 250 g/ha: 250 g ai/ha; for pest or weed control at 500 g/ha: 500 g ai/ha
In short: as §1

[4] = test system: woolly cupgrass (Eriochloa villosa); settings: Eriochloa villosa; for pest or weed control at 62 g/ha: 62 g ai/ha; for pest or weed control at 125 g/ha: 125 g ai/ha; for pest or weed control at 250 g/ha: 250 g ai/ha; for pest or weed control at 500 g/ha: 500 g ai/ha
In short: as §1

[5] = test system: velvetleaf (Abutilon theophrasti); settings: Abutilon theophrasti; for pest or weed control at 62 g/ha: 62 g ai/ha; for pest or weed control at 125 g/ha: 125 g ai/ha; for pest or weed control at 250 g/ha: 250 g ai/ha; for pest or weed control at 500 g/ha: 500 g ai/ha
In short: as §1

[6] = test system: pigweed (Amaranthus retroflexus); settings: Amaranthus retroflexus; for pest or weed control at 62 g/ha: 62 g ai/ha; for pest or weed control at 125 g/ha: 125 g ai/ha; for pest or weed control at 250 g/ha: 250 g ai/ha; for pest or weed control at 500 g/ha: 500 g ai/ha
In short: as §1

kochia (Kochia scoparia) = settings: Bassia scoparia; for pest or weed control at 62 g/ha: 62 g ai/ha; for pest or weed control at 125 g/ha: 125 g ai/ha; for pest or weed control at 250 g/ha: 250 g ai/ha; for pest or weed control at 500 g/ha: 500 g ai/ha
In short: as §1

[7] = post-emergence, Postemergence, scale 0 to 100 (0 no effect, 100 complete control), read-out: Johnsongrass plant response rating
[8] = post-emergence, Postemergence, scale 0 to 100, read-out: Plant response rating, Johnsongrass
[9] = pre-emergence, Preemergence, scale 0 to 100, read-out: Plant response rating, Johnsongrass
[10] = post-emergence, Postemergence, scale 0 to 100 (0 no effect, 100 complete control), read-out: Cupgrass, Woolly plant response rating
[11] = post-emergence, Postemergence, scale 0 to 100, read-out: Plant response rating, Cupgrass, Woolly
[12] = pre-emergence, Preemergence, scale 0 to 100, read-out: Plant response rating, Cupgrass, Woolly
[13] = post-emergence, Postemergence, scale 0 to 100 (0 no effect, 100 complete control), read-out: Velvetleaf plant response rating
[14] = post-emergence, Postemergence, scale 0 to 100, read-out: Plant response rating, Velvetleaf
[15] = pre-emergence, Preemergence, scale 0 to 100, read-out: Plant response rating, Velvetleaf
[16] = post-emergence, Postemergence, scale 0 to 100 (0 no effect, 100 complete control), read-out: Pigweed plant response rating
[17] = post-emergence, Postemergence, scale 0 to 100, read-out: Plant response rating, Pigweed
[18] = pre-emergence, Preemergence, scale 0 to 100, read-out: Plant response rating, Pigweed
[19] = post-emergence, Postemergence, scale 0 to 100 (0 no effect, 100 complete control), read-out: Kochia plant response rating
[20] = post-emergence, Postemergence, scale 0 to 100, read-out: Plant response rating, Kochia
[21] = pre-emergence, Preemergence, scale 0 to 100, read-out: Plant response rating, Kochia

## Nc1nc(C2CC2)nc(C(=O)O)c1Br [Compound 8]
[1]; 250 g ai/ha
  pest or weed control at 250 g/ha: 0%
[1]; 500 g ai/ha
  pest or weed control at 500 g/ha: 0%
[2]; 62 g ai/ha, scale 0 to 100, 0 no effect, 100 complete control
  pest or weed control at 62 g/ha: 20%
[2]; 125 g ai/ha, scale 0 to 100
  pest or weed control at 125 g/ha: 40%
[2]; 250 g ai/ha, scale 0 to 100
  pest or weed control at 250 g/ha: 100%
[2]; 500 g ai/ha, scale 0 to 100
  pest or weed control at 500 g/ha: 100%
[3]; [7]
  pest or weed control at 62 g/ha: 30%
  pest or weed control at 125 g/ha: 35%
[3]; [8]
  pest or weed control at 250 g/ha: 45%
  pest or weed control at 500 g/ha: 85%
[3]; pre-emergence, Preemergence, scale 0 to 100, 0 no effect, 100 complete control, read-out: Plant response rating, Johnsongrass
  pest or weed control at 62 g/ha: 0%
[3]; [9]
  pest or weed control at 125 g/ha: 0%
  pest or weed control at 250 g/ha: 0%
  pest or weed control at 500 g/ha: 20%
[4]; [10]
  pest or weed control at 62 g/ha: 30%
  pest or weed control at 125 g/ha: 60%
[4]; [11]
  pest or weed control at 250 g/ha: 75%
  pest or weed control at 500 g/ha: 85%
[4]; pre-emergence, Preemergence, scale 0 to 100, 0 no effect, 100 complete control, read-out: Plant response rating, Cupgrass, Woolly
  pest or weed control at 62 g/ha: 0%
[4]; [12]
  pest or weed control at 125 g/ha: 65%
  pest or weed control at 250 g/ha: 100%
  pest or weed control at 500 g/ha: 100%
[5]; [13]
  pest or weed control at 62 g/ha: 60%
  pest or weed control at 125 g/ha: 70%
[5]; [14]
  pest or weed control at 250 g/ha: 85%
  pest or weed control at 500 g/ha: 95%
[5]; pre-emergence, Preemergence, scale 0 to 100, 0 no effect, 100 complete control, read-out: Plant response rating, Velvetleaf
  pest or weed control at 62 g/ha: 65%
[5]; [15]
  pest or weed control at 125 g/ha: 75%
  pest or weed control at 250 g/ha: 100%
  pest or weed control at 500 g/ha: 100%
[6]; [16]
  pest or weed control at 62 g/ha: 70%
  pest or weed control at 125 g/ha: 75%
[6]; [17]
  pest or weed control at 250 g/ha: 100%
  pest or weed control at 500 g/ha: 100%
[6]; pre-emergence, Preemergence, scale 0 to 100, 0 no effect, 100 complete control, read-out: Plant response rating, Pigweed
  pest or weed control at 62 g/ha: 65%
[6]; [18]
  pest or weed control at 125 g/ha: 85%
  pest or weed control at 250 g/ha: 90%
  pest or weed control at 500 g/ha: 95%
Kochia (Kochia scoparia); [19]
  pest or weed control at 62 g/ha: 95%
  pest or weed control at 125 g/ha: 100%
Kochia (Kochia scoparia); [20]
  pest or weed control at 250 g/ha: 100%
  pest or weed control at 500 g/ha: 100%
Kochia (Kochia scoparia); pre-emergence, Preemergence, scale 0 to 100, 0 no effect, 100 complete control, read-out: Plant response rating, Kochia
  pest or weed control at 62 g/ha: 50%
Kochia (Kochia scoparia); [21]
  pest or weed control at 125 g/ha: 85%
  pest or weed control at 250 g/ha: 100%
  pest or weed control at 500 g/ha: 100%

— patent US8802597B2, “Herbicidal pyrimidines” (E I du Pont de Nemours and Company, priority 2003, dated 2014)
